Common to all, as to assay type: cell-based
For one test, the target named is hGLP-1R (Homo sapiens, UniProt P43220). The test is described as follows: Functional cAMP formation (HTRF) in HEK-293 clonal cells expressing hGLP-1R, 0.1% bovine casein, without or with 1.0% human serum albumin. Also noted: expressed in transfected cells. The following applies: for EC50: cAMP, 0.1% bovine casein (no human serum albumin), geometric mean; for Emax: percent of maximal response to GLP-1(7-36)NH2. The gist of the method: (§1)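 Cells were stimulated with peptide for 30 min at 37° C, then lysed in buffer carrying cAMP-d2 and anti-cAMP Eu3+-cryptate for a competitive HTRF read after at least 60 min at room temperature. The 665/620 nm ratio was converted to nM cAMP against a standard curve.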
For orientation: Changes in cAMP serve as a functional read-out for many G protein-coupled receptors.

Another test has as its target T1, hGCGR (Homo sapiens, UniProt P47871).
T1 construct: expressed in transfected cells
Nature of the test: Functional cAMP formation (HTRF) in HEK-293 clonal cells expressing hGCGR, 0.1% bovine casein, without or with 1.0% human serum albumin. The note with it: 37° C. The gist of the method:
as §1

The target in the next test is T2, hGIPR (Homo sapiens, UniProt P48546).
T2 construct: expressed in transfected cells
T2 sequence (P48546 22-466): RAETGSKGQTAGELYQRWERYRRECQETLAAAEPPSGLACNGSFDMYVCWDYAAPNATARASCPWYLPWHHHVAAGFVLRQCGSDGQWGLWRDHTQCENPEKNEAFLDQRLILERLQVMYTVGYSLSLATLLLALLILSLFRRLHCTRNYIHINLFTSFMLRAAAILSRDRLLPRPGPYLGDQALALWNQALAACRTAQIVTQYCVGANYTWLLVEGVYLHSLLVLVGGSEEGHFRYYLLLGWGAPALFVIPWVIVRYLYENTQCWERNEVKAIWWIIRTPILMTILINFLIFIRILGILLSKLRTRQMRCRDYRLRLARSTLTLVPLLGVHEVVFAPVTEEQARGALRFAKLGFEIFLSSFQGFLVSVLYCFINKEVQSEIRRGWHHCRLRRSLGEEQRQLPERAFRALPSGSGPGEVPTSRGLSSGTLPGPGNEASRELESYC
Nature of the test: Functional cAMP formation (HTRF) in HEK-293 clonal cells expressing hGIPR, 0.1% bovine casein, without or with 1.0% human serum albumin. The following applies: for Emax: percent of maximal response to GIP(1-42)NH2. The gist of the method: as §1

[1] abbreviates: 37° C., read-out: hGLP-1R EC50, nM (SEM, n).
The mark [2] stands for this setting: cAMP, 0.1% bovine casein (no human serum albumin), geometric mean, read-out: hGCGR EC50, nM (SEM, n).
The mark [3] stands for this setting: cAMP, 0.1% bovine casein and 1.0% human serum albumin, geometric mean (SEM, n), read-out: hGCGR EC50, nM (SEM, n).
Where [4] appears, read: HEK293, cAMP, 37° C., 0.1% bovine casein and 1.0% human serum albumin, read-out: hGIPR Emax, % ± SEM.
Setting [5] is: HEK293, cAMP, 37° C., 0.1% bovine casein, arithmetic mean, read-out: hGIPR Emax, % ± SEM.
Where [6] appears, read: cAMP, 37° C., 0.1% bovine casein (no human serum albumin), geometric mean, read-out: hGIPR EC50, nM (SEM, n).
Where [7] appears, read: HEK293, cAMP, 37° C., 0.1% bovine casein and 1.0% human serum albumin, read-out: hGLP-1R Emax, % ± SEM.
The mark [8] stands for this setting: HEK293, cAMP, 37° C., 0.1% bovine casein, arithmetic mean, read-out: hGLP-1R Emax, % ± SEM.

The results in this text go back to patent US20230265151A1, “GIP/GLP1 CO-AGONIST COMPOUNDS” (priority 2020, published 2023).

Read-outs that look alike come from different tables or passages of the source.

T1 sequence (P47871 26-477): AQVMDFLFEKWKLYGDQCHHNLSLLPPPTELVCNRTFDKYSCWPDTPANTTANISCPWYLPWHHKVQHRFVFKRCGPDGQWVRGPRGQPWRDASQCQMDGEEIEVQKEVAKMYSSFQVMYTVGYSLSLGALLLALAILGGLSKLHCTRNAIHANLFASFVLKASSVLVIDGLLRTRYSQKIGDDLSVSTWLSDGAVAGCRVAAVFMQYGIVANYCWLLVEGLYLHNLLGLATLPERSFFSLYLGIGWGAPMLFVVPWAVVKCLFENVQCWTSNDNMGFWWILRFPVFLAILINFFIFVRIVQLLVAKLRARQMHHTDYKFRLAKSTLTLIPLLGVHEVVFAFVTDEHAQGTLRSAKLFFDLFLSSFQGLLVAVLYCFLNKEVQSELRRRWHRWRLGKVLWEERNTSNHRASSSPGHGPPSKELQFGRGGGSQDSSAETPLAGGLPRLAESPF
Sequence of hGLP-1R (P43220 24-463): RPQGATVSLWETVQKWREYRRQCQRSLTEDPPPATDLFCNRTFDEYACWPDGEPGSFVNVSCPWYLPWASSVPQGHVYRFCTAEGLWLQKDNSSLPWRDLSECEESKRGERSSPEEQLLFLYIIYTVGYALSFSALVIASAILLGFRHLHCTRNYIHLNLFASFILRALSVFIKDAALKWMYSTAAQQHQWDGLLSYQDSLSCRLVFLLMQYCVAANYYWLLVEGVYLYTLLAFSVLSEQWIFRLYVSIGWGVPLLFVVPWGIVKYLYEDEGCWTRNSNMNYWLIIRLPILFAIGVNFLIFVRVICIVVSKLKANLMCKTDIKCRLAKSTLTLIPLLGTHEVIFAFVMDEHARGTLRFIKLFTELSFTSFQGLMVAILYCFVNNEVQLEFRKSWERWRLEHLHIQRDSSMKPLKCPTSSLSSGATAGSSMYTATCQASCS

For the compound `CC[C@H](C)[C@H](NC(=O)[C@H](CC(C)C)NC(=O)[C@](C)(Cc1ccc(O)cc1)NC(=O)[C@H](CCCCNC(=O)COCCOCCNC(=O)COCCOCCNC(=O)CC[C@H](NC(=O)CCCCCCCCCCCCC(=O)O)C(=O)O)NC(=O)[C@@H](NC(=O)[C@H](Cc1ccccc1)NC(=O)[C@H](CCCN)NC(=O)C(C)(C)NC(=O)[C@H](CCC(N)=O)NC(=O)[C@H](C)NC(=O)[C@H](CCC(N)=O)NC(=O)[C@H](CCCN)NC(=O)[C@H](CC(=O)O)NC(=O)[C@H](CC(C)C)NC(=O)[C@](C)(CC(C)C)NC(=O)[C@@H](NC(=O)C(C)(C)NC(=O)[C@H](Cc1ccc(O)cc1)NC(=O)[C@H](CC(=O)O)NC(=O)[C@H](CO)NC(=O)[C@@H](NC(=O)[C@](C)(Cc1ccccc1F)NC(=O)[C@@H](NC(=O)CNC(=O)[C@H](CCC(=O)O)NC(=O)C(C)(C)NC(=O)[C@@H](N)Cc1ccc(O)cc1)[C@@H](C)O)[C@@H](C)O)[C@@H](C)CC)[C@@H](C)CC)C(=O)N[C@@H](CCCCNC(=O)COCCOCCNC(=O)COCCOCCNC(=O)CC[C@H](NC(=O)CCCCCCCCCCCCC(=O)O)C(=O)O)C(=O)NCC(=O)NCC(=O)N1CCC[C@H]1C(=O)N[C@@H](CO)C(=O)N[C@@H](CO)C(=O)NCC(=O)N[C@@H](C)C(=O)N1CCC[C@H]1C(=O)N1CCC[C@H]1C(=O)N1CCC[C@H]1C(=O)N[C@@H](CO)C(N)=O` [Example 401], the EC50 was 0.235 nM at hGLP-1R (setting [1]), over 9950 nM at hGCGR (setting [2]), over 9950 nM at hGCGR (setting [3]) and 0.0112 nM on hGIPR (setting [6]). The maximum response (Emax) was determined as 83% on hGIPR (setting [4]) and 98.9% at hGIPR (setting [5]).

As to `CC[C@H](C)[C@H](NC(=O)[C@H](CCCN)NC(=O)[C@H](CC(=O)O)NC(=O)[C@H](CC(C)C)NC(=O)[C@](C)(CC(C)C)NC(=O)[C@@H](NC(=O)C(C)(C)NC(=O)[C@@H](NC(=O)[C@H](CC(=O)O)NC(=O)[C@H](CO)NC(=O)[C@@H](NC(=O)[C@](C)(Cc1ccccc1F)NC(=O)[C@@H](NC(=O)CNC(=O)[C@H](CCC(=O)O)NC(=O)C(C)(C)NC(=O)[C@@H](N)Cc1ccc(O)cc1)[C@@H](C)O)[C@@H](C)O)C(C)C)[C@@H](C)CC)C(=O)N[C@@H](C)C(=O)N[C@@H](CCC(N)=O)C(=O)NC(C)(C)C(=O)N[C@@H](CCC(=O)O)C(=O)N[C@@H](Cc1ccccc1)C(=O)N[C@H](C(=O)N[C@@H](CCCCNC(=O)COCCOCCNC(=O)COCCOCCNC(=O)COCCOCCNC(=O)CC[C@H](NC(=O)CCCCCCCCCCCCC(=O)O)C(=O)O)C(=O)N[C@@](C)(Cc1ccc(O)cc1)C(=O)N[C@@H](CC(C)C)C(=O)N[C@H](C(=O)N[C@@H](CCCCNC(=O)COCCOCCNC(=O)COCCOCCNC(=O)COCCOCCNC(=O)CC[C@H](NC(=O)CCCCCCCCCCCCC(=O)O)C(=O)O)C(=O)NCC(=O)NCC(=O)N1CCC[C@H]1C(=O)N[C@@H](CO)C(=O)N[C@@H](CO)C(=O)NCC(=O)N[C@@H](C)C(=O)N1CCC[C@H]1C(=O)N1CCC[C@H]1C(=O)N1CCC[C@H]1C(=O)N[C@@H](CO)C(N)=O)[C@@H](C)CC)[C@@H](C)CC` [Example 344], the Emax worked out at 96.5% on hGLP-1R (setting [7]), 100% on hGLP-1R (setting [8]), 87.3% at hGIPR (setting [4]) and 97.9% at hGIPR (setting [5]). The EC50 on hGLP-1R (setting [1]) is 0.336 nM; at hGCGR (setting [2]) it was over 9950 nM; on hGCGR (setting [3]), over 9950 nM; at hGIPR (setting [6]) it was 0.0174 nM; on hGIPR (cAMP, 37° C., 0.1% bovine casein and 1.0% human serum albumin, geometric mean (SEM, n), read-out: hGIPR EC50, nM (SEM, n)) it was 6.78 nM.

In the case of `CC[C@H](C)[C@H](NC(=O)[C@H](CCCN)NC(=O)[C@H](CC(=O)O)NC(=O)[C@H](CC(C)C)NC(=O)[C@](C)(CC(C)C)NC(=O)[C@@H](NC(=O)C(C)(C)NC(=O)[C@H](Cc1ccncc1)NC(=O)[C@H](CC(=O)O)NC(=O)[C@H](CO)NC(=O)[C@@H](NC(=O)[C@](C)(Cc1ccccc1F)NC(=O)[C@@H](NC(=O)CNC(=O)[C@H](CCC(=O)O)NC(=O)C(C)(C)NC(=O)[C@@H](N)Cc1ccc(O)cc1)[C@@H](C)O)[C@@H](C)O)[C@@H](C)CC)C(=O)N[C@@H](C)C(=O)N[C@@H](CCC(N)=O)C(=O)NC(C)(C)C(=O)N[C@@H](CCC(=O)O)C(=O)N[C@@H](Cc1ccccc1)C(=O)N[C@H](C(=O)N[C@@H](CCCCNC(=O)COCCOCCNC(=O)CC[C@H](NC(=O)CCCCCCCCCCCCC(=O)O)C(=O)O)C(=O)N[C@@](C)(Cc1ccc(O)cc1)C(=O)N[C@@H](CC(C)C)C(=O)N[C@H](C(=O)N[C@@H](CCCCNC(=O)COCCOCCNC(=O)CC[C@H](NC(=O)CCCCCCCCCCCCC(=O)O)C(=O)O)C(=O)NCC(=O)NCC(=O)N1CCC[C@H]1C(=O)N[C@@H](CO)C(=O)N[C@@H](CO)C(=O)NCC(=O)N[C@@H](C)C(=O)N1CCC[C@H]1C(=O)N1CCC[C@H]1C(=O)N1CCC[C@H]1C(=O)N[C@@H](CO)C(N)=O)[C@@H](C)CC)[C@@H](C)CC` [Example 339], the Emax on hGLP-1R (setting [7]) worked out at 115%; at hGLP-1R (setting [8]), 113%; on hGIPR (setting [4]) it was 87.3%. For the same compound, the concentration giving a half-maximal response (EC50) was 0.308 nM at hGLP-1R (setting [1]), over 10100 nM at hGCGR (setting [2]), over 10100 nM at hGCGR (setting [3]) and 0.019 nM at hGIPR (setting [6]).

On to `CC[C@H](C)[C@H](NC(=O)[C@H](CCCN)NC(=O)[C@H](CC(=O)O)NC(=O)[C@H](CC(C)C)NC(=O)[C@](C)(CC(C)C)NC(=O)[C@@H](NC(=O)[C@H](CO)NC(=O)[C@H](Cc1ccc(OC)cc1)NC(=O)[C@H](CC(=O)O)NC(=O)[C@H](CO)NC(=O)[C@@H](NC(=O)[C@](C)(Cc1ccccc1F)NC(=O)[C@@H](NC(=O)CNC(=O)[C@H](CCC(=O)O)NC(=O)C(C)(C)NC(=O)[C@@H](N)Cc1ccc(O)cc1)[C@@H](C)O)[C@@H](C)O)[C@@H](C)CC)C(=O)N[C@@H](C)C(=O)N[C@@H](CCC(N)=O)C(=O)NC(C)(C)C(=O)N[C@@H](CCCCNC(=O)COCCOCCNC(=O)COCCOCCNC(=O)CC[C@H](NC(=O)CCCCCCCCCOc1ccc(C(=O)O)cc1)C(=O)O)C(=O)N[C@@H](Cc1ccccc1)C(=O)N[C@H](C(=O)N[C@H](CCC(=O)O)C(=O)N[C@@](C)(Cc1ccc(O)cc1)C(=O)N[C@@H](CC(C)C)C(=O)N[C@H](C(=O)N[C@@H](CCCCNC(=O)COCCOCCNC(=O)COCCOCCNC(=O)CC[C@H](NC(=O)CCCCCCCCCOc1ccc(C(=O)O)cc1)C(=O)O)C(=O)NCC(=O)NCC(=O)N1CCC[C@H]1C(=O)N[C@@H](CO)C(=O)N[C@@H](CO)C(=O)NCC(=O)N[C@@H](C)C(=O)N1CCC[C@H]1C(=O)N1CCC[C@H]1C(=O)N1CCC[C@H]1C(=O)N[C@@H](CO)C(N)=O)[C@@H](C)CC)[C@@H](C)CC` [Example 280], for which the maximum response (Emax) on hGLP-1R (HEK293, read-out: hGLP-1R Emax, % ± SEM, 0.1% bovine casein and 1.0% human serum albumin, 37° C.) stood at 105%; at hGIPR (HEK293, read-out: hGIPR Emax, % ± SEM, 0.1% bovine casein and 1.0% human serum albumin, 37° C.), 88.5%; at hGIPR (HEK293, read-out: hGIPR Emax, % ± SEM, cAMP, 37° C., 0.1% bovine casein, arithmetic mean), 105%. Besides, the half-maximal effective concentration (EC50) is 0.346 nM on hGLP-1R (hGLP-1R EC50, nM (SEM, n), 37° C.); over 9950 nM at hGCGR (hGCGR EC50, nM (SEM, n), 0.1% bovine casein and 1.0% human serum albumin, geometric mean); over 9950 nM at hGCGR (hGCGR EC50, nM (SEM, n), cAMP, 0.1% bovine casein (no human serum albumin), geometric mean); 4.84 nM on hGIPR (hGIPR EC50, nM (SEM, n), 0.1% bovine casein and 1.0% human serum albumin, 37° C., geometric mean); 0.0229 nM at hGIPR (hGIPR EC50, nM (SEM, n), cAMP, 37° C., 0.1% bovine casein (no human serum albumin), geometric mean).

By EC50 is commonly meant the concentration that produces a half-maximal response. As a reminder, the Emax is the size of the effect at its maximum, as opposed to the concentration needed.
